Laboratory results: US10669272B2, “Substituted naphthyridinone compounds useful as T cell activators” (BRISTOL-MYERS SQUIBB COMPANY, priority 2018, dated 2020)
Read-outs that look alike come from different tables or passages of the source.

Legend:
Human venous whole blood = test: Human whole blood IFN-γ assay; assay type: cell-based; conditions: human whole blood, normalized to 3 μM reference compound with anti-CD3 plus anti-CD28 as 100% activation, read-out: INFg Whole Blood Normalized Agonist EC50;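 also: blood from healthy donors exposed to compound for 1 h before stimulation with anti-CD3 and anti-CD28 at 1 µg/mL each, IFN-γ quantified in supernatant by AlphaLISA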
human DGKα = target: T1, human DGKα (Homo sapiens, UniProt P23743); test: DGKα LIPGLO assay (extruded liposome substrate), in vitro DGK inhibition; assay type: biochemical; conditions: liposome (LIPGLO) assay; read-out: DGKa LIPGLO IC50
T1 construct: TVMV protease cleavage site (C); Hexa-His (C); made in house; host or cells: Sf9 insect cells (baculovirus, Bac-to-Bac)

human DGKζ = target: T2, human DGKζ (Homo sapiens, UniProt Q13574); test: DGKζ LIPGLO assay (extruded liposome substrate), in vitro DGK inhibition; assay type: biochemical; conditions: liposome (LIPGLO) assay; read-out: DGKz LIPGLO IC50
T2 construct: TVMV protease cleavage site (C); Hexa-His (C); made in house; host or cells: Sf9 insect cells (baculovirus, Bac-to-Bac)

naïve human CD8 T cells = test: Human CD8 T cells IFN-γ assay; assay type: cell-based; conditions: normalized to 3 μM reference compound with anti-CD3 plus anti-CD28 as 100% activation, read-out: HuCD8 INFG Normalized EC50;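 also: Naïve human CD8 T cells stimulated with plate-bound anti-CD3 and soluble anti-CD28, IFN-γ in supernatant quantified by AlphaLISA and converted to pg/mL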
[1] = system: OT-1 CD8+ T cells with SIINFEKL-loaded MC38 tumor cells; test: Murine cytotoxic T lymphocyte assay (IFN-γ, OT-1 CTL with MC38 tumor cells); assay type: cell-based, mouse; conditions: read-out: msCTL INFg IC50
How it was run: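 OT-1 CD8+ T cells, expanded 5 days with OVA peptide (1 μg/mL) and mIL2, pretreated 1 h with DGK inhibitors, then co-cultured overnight at 37° C at 1:10 with MC38 cells pulsed 3 h with 1 μg/mL SIINFEKL. IFN-γ in 24 h supernatant by AlphaLISA.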

T2 sequence (Q13574 with tags, fused parts or gaps isoform Q13574-4): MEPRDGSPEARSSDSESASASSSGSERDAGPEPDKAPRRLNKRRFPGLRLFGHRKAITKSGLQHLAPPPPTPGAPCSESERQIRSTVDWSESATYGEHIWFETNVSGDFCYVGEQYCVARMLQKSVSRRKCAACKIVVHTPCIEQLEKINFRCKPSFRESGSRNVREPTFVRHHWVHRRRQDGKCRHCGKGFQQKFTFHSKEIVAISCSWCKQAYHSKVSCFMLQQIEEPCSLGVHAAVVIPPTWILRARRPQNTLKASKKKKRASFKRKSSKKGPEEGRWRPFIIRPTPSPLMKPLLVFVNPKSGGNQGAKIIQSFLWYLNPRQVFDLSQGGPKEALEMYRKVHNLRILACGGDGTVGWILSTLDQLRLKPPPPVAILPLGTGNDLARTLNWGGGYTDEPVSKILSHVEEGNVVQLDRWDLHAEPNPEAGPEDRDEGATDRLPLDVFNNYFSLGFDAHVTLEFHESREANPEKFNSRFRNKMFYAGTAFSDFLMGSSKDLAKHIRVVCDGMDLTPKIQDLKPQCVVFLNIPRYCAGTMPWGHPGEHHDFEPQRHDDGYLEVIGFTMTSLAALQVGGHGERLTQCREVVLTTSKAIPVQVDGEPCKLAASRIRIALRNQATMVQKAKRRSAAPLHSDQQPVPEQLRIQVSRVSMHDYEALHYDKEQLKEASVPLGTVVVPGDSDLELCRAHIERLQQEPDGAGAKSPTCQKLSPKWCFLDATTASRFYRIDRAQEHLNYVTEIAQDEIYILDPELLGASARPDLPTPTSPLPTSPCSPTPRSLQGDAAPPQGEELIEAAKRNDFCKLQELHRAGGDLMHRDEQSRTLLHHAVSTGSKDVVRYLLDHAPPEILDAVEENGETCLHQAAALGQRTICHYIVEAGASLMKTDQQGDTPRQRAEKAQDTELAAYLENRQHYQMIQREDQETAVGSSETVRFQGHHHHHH
T1 sequence (P23743 with tags, fused parts or gaps): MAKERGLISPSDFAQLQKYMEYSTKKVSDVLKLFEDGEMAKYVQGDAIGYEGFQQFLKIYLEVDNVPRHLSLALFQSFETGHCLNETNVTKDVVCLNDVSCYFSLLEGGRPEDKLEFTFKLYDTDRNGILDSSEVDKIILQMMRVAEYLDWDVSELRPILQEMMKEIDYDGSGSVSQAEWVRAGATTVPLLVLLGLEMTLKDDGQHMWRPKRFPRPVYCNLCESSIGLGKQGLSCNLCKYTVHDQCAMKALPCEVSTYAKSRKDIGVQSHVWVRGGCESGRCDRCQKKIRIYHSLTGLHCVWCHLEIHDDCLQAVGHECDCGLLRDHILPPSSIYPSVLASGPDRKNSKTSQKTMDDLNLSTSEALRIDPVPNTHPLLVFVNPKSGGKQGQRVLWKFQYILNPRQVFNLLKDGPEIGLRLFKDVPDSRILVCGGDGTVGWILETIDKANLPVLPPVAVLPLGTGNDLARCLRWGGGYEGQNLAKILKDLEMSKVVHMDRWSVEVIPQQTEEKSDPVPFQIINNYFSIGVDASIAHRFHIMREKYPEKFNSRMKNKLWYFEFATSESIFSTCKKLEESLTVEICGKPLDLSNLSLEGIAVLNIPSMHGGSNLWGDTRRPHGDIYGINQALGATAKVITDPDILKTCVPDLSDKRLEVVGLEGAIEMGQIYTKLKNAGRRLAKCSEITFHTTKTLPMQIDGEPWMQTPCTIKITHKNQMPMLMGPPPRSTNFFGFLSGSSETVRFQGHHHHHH

SMILES	IC50 (human DGKα) [nM]	IC50 (human DGKζ) [nM]	EC50 (Human venous whole blood; Homo sapiens, 24 h) [nM]	EC50 (naïve human CD8 T cells; Homo sapiens, T-cell, 20 h) [nM]	IC50 ([1]; Mus musculus, MC-38) [nM]	EC50 (naïve human CD8 T cells) [nM]	IC50 [1] [nM]	EC50 (Human venous whole blood) [nM]	EC50 (Human venous whole blood; Homo sapiens) [nM]
C[C@@H]1CN(c2c([N+](=O)[O-])c(=O)n(C)c3ccc(C#N)nc23)[C@@H](C)CN1C(c1ccc(F)cc1)c1ccc(F)cc1 [Example 161, 8-((2S,5R)-4-(bis(4-fluorophenyl)methyl)-2,5-dimethylpiperazin-1-yl)-5-methyl-7-nitro-6-oxo-5,6-dihydro-1,5-naphthyridine-2-carbonitrile]	68000	29000	8600	520	1500	–	–	–	–
Cn1c(=O)cc(N2CCN(C(c3ccc(F)cc3)c3ccc(F)cc3)C(C(C)(C)O)C2)c2nc(C#N)ccc21 (single isomer, unassigned) [Example 78, 8-(4-(bis(4-fluorophenyl)methyl)-3-(2-hydroxypropan-2-yl)piperazin-1-yl)-5-methyl-6-oxo-5,6-dihydro-1,5-naphthyridine-2-carbonitrile]	18000	1900	8400	–	–	210	2000	–	–
Cc1c(N2C[C@@H](C)N(C(c3ccc(F)cc3)c3ccc(F)cc3)C[C@@H]2C)c2nc(C#N)ccc2n(C)c1=O [Example 22, 8-((2S,5R)-4-(bis(4-fluorophenyl)methyl)-2,5-dimethylpiperazin-1-yl)-5,7-dimethyl-6-oxo-5,6-dihydro-1,5-naphthyridine-2-carbonitrile]	44000	37000	20000	10000	10000	–	–	–	–
CC[C@@H]1CN(c2c(Cl)c(=O)n(C)c3ccc(C#N)nc23)CCN1C(c1ccc(Cl)cc1)c1ccc(Cl)cc1 [Example 177, (R)-8-(4-(bis(4-chlorophenyl)methyl)-3-ethylpiperazin-1-yl)-7-chloro-5-methyl-6-oxo-5,6-dihydro-1,5-naphthyridine-2-carbonitrile]	5500	2700	5000	130	870	–	–	–	–
CC(C)[C@@H]1CN(c2cc(=O)n(C)c3ccc(C#N)nc23)CCN1C(c1ccc(F)cc1)c1ccc(F)cc1 [Example 168, (R)-8-(4-(bis(4-fluorophenyl)methyl)-3-isopropylpiperazin-1-yl)-5-methyl-6-oxo-5,6-dihydro-1,5-naphthyridine-2-carbonitrile]	7500	240000	10000	10000	510	–	–	–	–
Cn1c(=O)cc(N2CCN(C(c3ccc(F)cc3)c3ccc(F)cc3)C(C(C)(C)O)C2)c2nc(C#N)ccc21 (single isomer, unassigned) [Example 79, 8-(4-(bis(4-fluorophenyl)methyl)-3-(2-hydroxypropan-2-yl)piperazin-1-yl)-5-methyl-6-oxo-5,6-dihydro-1,5-naphthyridine-2-carbonitrile]	6700	240000	–	–	–	10000	8000	10000	–
C[C@@H]1CN(c2c(Br)c(=O)n(C)c3ccc(C#N)nc23)[C@@H](C)CN1C(c1ccc(F)cc1)c1ccc(F)cc1 [Example 19, 8-((2S,5R)-4-(bis(4-fluorophenyl)methyl)-2,5-dimethylpiperazin-1-yl)-7-bromo-5-methyl-6-oxo-5,6-dihydro-1,5-naphthyridine-2-carbonitrile]	42000	240000	20000	10000	8700	–	–	–	–
C[C@@H]1CN(c2cc(=O)n(C)c3ccc(C#N)nc23)CCN1C(c1ccc(Cl)cc1)c1ccc(Cl)cc1 [Example 104, (R)-8-(4-(bis(4-chlorophenyl)methyl)-3-methylpiperazin-1-yl)-5-methyl-6-oxo-5,6-dihydro-1,5-naphthyridine-2-carbonitrile, dimethylformamide]	4400	4400	6500	180	560	–	–	–	–
COC(=O)C1CN(c2cc(=O)n(C)c3ccc(C#N)nc23)CCN1C(c1ccc(F)cc1)c1ccc(F)cc1 (single isomer, unassigned) [Example 39, Methyl 1-(bis(4-fluorophenyl)methyl)-4-(6-cyano-1-methyl-2-oxo-1,2-dihydro-1,5-naphthyridin-4-yl)piperazine-2-carboxylate]	240000	9400	–	–	–	220	1900	9700	–

Compounds with a lower IC50 (human DGKα), results first:

IC50 (human DGKα) [nM]	IC50 (human DGKζ) [nM]	SMILES	EC50 (Human venous whole blood; Homo sapiens, 24 h) [nM]	EC50 (naïve human CD8 T cells; Homo sapiens, T-cell, 20 h) [nM]	IC50 ([1]; Mus musculus, MC-38) [nM]	EC50 (naïve human CD8 T cells) [nM]	IC50 [1] [nM]	EC50 (Human venous whole blood) [nM]	EC50 (Human venous whole blood; Homo sapiens) [nM]
820	430	CC[C@@H]1CN(c2c(F)c(=O)n(C)c3ccc(C#N)nc23)CCN1C(c1ccc(F)cc1)c1ccc(F)cc1 [Example 174, (R)-8-(4-(bis(4-fluorophenyl)methyl)-3-ethylpiperazin-1-yl)-7-fluoro-5-methyl-6-oxo-5,6-dihydro-1,5-naphthyridine-2-carbonitrile]	2200	34	110	–	–	–	–
3300	1600	Cn1c(=O)c(Cl)c(N2CCN(C(c3ccc(F)cc3)c3ccc(F)cc3)C(CO)C2)c2nc(C#N)ccc21 (single isomer, unassigned) [Example 101, 8-(4-(bis (4-fluorophenyl)methyl)-3-(hydroxymethyl)piperazin-1-yl)-7-chloro-5-methyl-6-oxo-5,6-dihydro-1,5-naphthyridine-2-carbonitrile]	–	–	–	77	140	2300	–
500	690	C[C@@H]1CN(c2cc(=O)n(C)c3ccc(C#N)nc23)[C@@H](C)CN1C(c1ccc(F)cc1)c1ccc(Cl)cc1 (single isomer, unassigned) [Example 303]	–	–	–	160	57	650	–
2400	44000	C[C@@H]1CN(c2c(C#N)c(=O)n(C)c3cccnc23)[C@@H](C)CN1C(c1ccc(F)cc1)c1ccc(F)cc1 [Example 160, 4-((2S,5R)-4-(bis(4-fluorophenyl)methyl)-2,5-dimethylpiperazin-1-yl)-1-methyl-2-oxo-1,2-dihydro-1,5-naphthyridine-3-carbonitrile]	20000	10000	10000	–	–	–	–
4100	1500	CC[C@@H]1CN(c2cc(=O)n(C)c3ccc(C#N)nc23)CCN1C(c1ccc(Cl)cc1)c1ccc(Cl)cc1 [Example 180, (R)-8-(4-(bis(4-chlorophenyl)methyl)-3-ethylpiperazin-1-yl)-5-methyl-6-oxo-5,6-dihydro-1,5-naphthyridine-2-carbonitrile]	830	70	400	–	–	–	–
2400	330	CC[C@@H]1CN(c2c(Cl)c(=O)n(C)c3ccc(C#N)nc23)CCN1C(c1ccc(F)cc1)c1ccc(F)cc1 [Example 175, (R)-8-(4-(bis(4-fluorophenyl)methyl)-3-ethylpiperazin-1-yl)-7-chloro-5-methyl-6-oxo-5,6-dihydro-1,5-naphthyridine-2-carbonitrile]	4300	51	610	–	–	–	–
3400	5200	COC(=O)C1CN(c2c(Cl)c(=O)n(C)c3ccc(C#N)nc23)CCN1C(c1ccc(F)cc1)c1ccc(F)cc1 (single isomer, unassigned) [Example 76, methyl 1-(bis(4-fluorophenyl)methyl)-4-(3-chloro-6-cyano-1-methyl-2-oxo-1,2-dihydro-1,5-naphthyridin-4-yl)piperazine-2-carboxylate]	1600	10000	–	–	280	–	–
1500	870	Cc1ccc(C(c2ccc(C)cc2)N2C[C@H](C)N(c3cc(=O)n(C)c4ccc(C#N)nc34)C[C@H]2C)cc1 [Example 301, 8-[(2S,5R)-4-[bis(4-methylphenyl)methyl]-2,5-dimethylpiperazin-1-yl]-5-methyl-6-oxo-5,6-dihydro-1,5-naphthyridine-2-carbonitrile]	–	9.5	72	–	–	–	520
880	880	CC[C@@H]1CN(c2c(C#N)c(=O)n(C)c3ccc(C#N)nc23)CCN1C(c1ccc(Cl)cc1)c1ccc(Cl)cc1 [Example 179, (R)-8-(4-(bis(4-chlorophenyl)methyl)-3-ethylpiperazin-1-yl)-5-methyl-6-oxo-5,6-dihydro-1,5-naphthyridine-2,7-dicarbonitrile]	1000	52	49	–	–	–	–
650	250	C[C@@H]1CN(c2cc(=O)n(C)c3ccc(C#N)nc23)[C@@H](C)CN1C(c1ccc(Cl)cc1)c1ccc(Cl)cc1 [Example 25, 8-((2S,5R)-4-(bis(4-chlorophenyl)methyl)-2,5-dimethylpiperazin-1-yl)-5-methyl-6-oxo-5,6-dihydro-1,5-naphthyridine-2-carbonitrile]	390	4.3	41	–	–	–	–
